In patent US6884600B1, “Protein phosphatase-1 catalytic subunit interactions” (Medical Research Council London, priority 1996, dated 2005):
Entries after “also recorded” stand apart in the source; their conditions may differ.

Columns and labels:
PP1GL [1] = assay: Phosphorylase phosphatase activity of PP1GL (hepatic glycogen particles); format: biochemical, rat
Method: Hepatic glycogen particles were diluted in assay buffer to 0.6 phosphorylase phosphatase (PhP) mU per ml, incubated for 15 minutes at 30° C. with GM-(G63-T93) (closed circles), GM-(G63-K80) (open circles) or GM-(G63-N75) (closed triangles) and assayed as described in Example 1. The open triangles show the effect of GM-(G63-N75) which had been phosphorylated at Ser67 by PKA (pGM-(G63-N75)). Similar results were obtained in four experiments.
(A) Hepatic glycogen protein particles containing PP1-GL were diluted and incubated for 15 min at 30° C. with the indicated concentrations of either M110[M1-F38] (open circles) or M110[M1-K35] (closed circles) and the phosphatase reactions were initiated by addition of ^32P-labelled glycogen phosphorylase. The results are expressed as a percentage of the activity determined in control incubations where the M110 peptides were omitted. Similar results were obtained in three separate experiments. (B) The experiment was carried out as in (A), except that the peptide GM[G63-N75] (“wild type”, WT) and variants in which either Val 66 (V66A) (closed triangles) or Phe 68 (F68A) (closed circles) were changed to Ala, were used instead of the M110 peptides. Similar results were obtained in three separate experiments.
(§1) The myosin-associated form of PP1 (PP1M) was from chicken gizzard and the glycogen-associated form of PP1 (PP1G) from rabbit skeletal muscle. The β isoform of PP1c was released from PP1G by incubation for 2 hours in 2M LiBr, then purified by gel-filtration on a 30×1 cm column of Superose 12 (Pharmacia, Milton Keynes, U.K.) in the presence of 0.5M LiBr. Glycogen protein particles from rat liver were used as the source of hepatic PP1G Digoxygenin-labelled PP1c (γ1-isoform, hereafter termed PP1) was prepared as in [9]. GL was expressed in E. coli as a glutathione-S-transferase (GST) fusion protein [7], termed GST-GL. The catalytic subunit of PP2A from bovine heart (PP2AC) was provided by Dr R. MacKintosh in this Unit. The phosphorylatable myosin light chain (MLC20) and heavy meromyosin from chicken gizzard were a gift from Dr M. Ikebe (Case Western Reserve University, Cleveland, USA). Thrombin and benzamidine-Agarose were purchased from Sigma (Poole, UK).
(§2) ^32P-labelled rabbit skeletal muscle phosphorylase a (containing 1.0 mol phosphate per mol subunit) was prepared by phosphorylation with phosphorylase kinase, ^32P-labelled rabbit skeletal muscle glycogen synthase (containing 1.5 mol/mol subunit in the sites 3 region) was prepared by phosphorylation with glycogen synthase kinase-3 [24]). ^32P-labelled chicken gizzard MLC20 and ^32P-labelled chicken gizzard heavy meromyosin (containing 1.0 mol phosphate per mol subunit) were prepared by phosphorylation with smooth muscle myosin light chain kinase. The dephosphorylation of phosphorylase a (10 μM), glycogen synthase (1 μM) and MLC20 (1 μM) and heavy meromyosin (1 μM) was carried out as in [24]. One unit of activity (U) was that amount which released […] of phosphate in one minute.
(§3) PP1c was isolated from the rabbit skeletal muscle PP1-GM complex as described previously (Johnson et al, 1996). Glycogen particles isolated from rat liver (Schelling el al, 1988) served as the source of PP1-GL. The dephosphorylation of glycogen phosphorylase (10 μM) and the isolated MLC20 of smooth muscle myosin (1 μM) by PP1c was carried out as described previously (Cohen et al., 1988; Alessi et al., 1992).

cultured cells = assay: Effect of p53BP2 peptide introduced into cultured cells (cell cycle, apoptosis; WAF1 ELISA, Nuclear Matrix Protein ELISA); format: cell-based; details: Example 5, present tense, no data
Text: The function of p53BP2 is ascertained by examining the in vivo effect of peptides based on the sequence of the p53BP2 binding site to PP1. This may be done by reference to the consensus peptide sequence described in the previous Examples and by reference to the crystal structure in Example 2. The peptide is introduced into cultured cells using penetratin available from Appligene. Other importins may also be used. Alternatively cDNA specifying p53BP2 proteins mutant in the p53BP2 binding site to PP1 are transfected in cultured cells. The effect of these agents on the cell cycle and apoptosis are assessed by a number of methods, for example WAF1 ELISA and Nuclear Matrix Protein ELISA assays (Amersham).

PP1M [2] = molecular target: T1, PP1M (Gallus gallus, UniProt P62207); assay: Phosphorylase phosphatase activity of PP1M; format: biochemical, chicken
T1 construct: from tissue; host or cells: chicken gizzard smooth muscle
T1 sequence (P62207 whole entry): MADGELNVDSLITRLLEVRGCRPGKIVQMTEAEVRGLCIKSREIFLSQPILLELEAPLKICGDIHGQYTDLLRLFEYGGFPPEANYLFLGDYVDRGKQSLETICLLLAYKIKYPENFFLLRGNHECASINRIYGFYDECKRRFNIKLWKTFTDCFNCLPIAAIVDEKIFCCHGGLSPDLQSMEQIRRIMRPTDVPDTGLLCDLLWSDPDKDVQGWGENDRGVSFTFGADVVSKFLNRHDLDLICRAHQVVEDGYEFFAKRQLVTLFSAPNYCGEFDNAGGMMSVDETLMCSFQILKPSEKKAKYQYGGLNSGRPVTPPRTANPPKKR
Method: (§4) (A) The phosphorylase phosphatase (PhP) activity of PP1M (closed circles) and its MLC20 phosphatase (MLCP) activity (open circles) were assayed after preincubation for 15 minutes at 30° C. with the indicated concentrations of GM-(G63-T93). Activities are shown relative to control incubations in which GM-(G63-T93) was omitted. Similar results were obtained in three experiments.
(§5) (A) PP1M from chicken gizzard smooth muscle (Alessi et al., 1992) was diluted and incubated for 15 min at 30° C. with the peptide […] (SEQ ID No 4), corresponding to the sequence in p53BP2 that contains the RVXF motif. Reactions were started with either ^32P-labelled MLC20 or glycogen phosphorylase and the MLC20 phosphatase (open circles) and phosphorylase phosphatase (PhP, closed circles) activities were determined. The results are expressed as a percentage of the activity determined in control incubations where the p53BP2 peptide was omitted (100%). Similar results were obtained in three separate experiments. (B) same as (A) except that the peptide was incubated with diluted hepatic glycogen particles containing PP1-GL before measuring the PhP activity. Similar results were obtained in three separate experiments.
(§6) The myosin-associated form of PP1 (PP1M) was from chicken gizzard and the glycogen-associated form of PP1 (PP1G) from rabbit skeletal muscle. […]

PP1M [3] = molecular target: T1, PP1M; assay: MLC20 phosphatase activity of PP1M; format: biochemical, chicken
Method: as §4, §5, §6

PP1GL [4] = assay: Glycogen synthase phosphatase activity of PP1GL; format: biochemical, rat
Method: as §1, with “UK). […]” for “UK).”

PP1c [5] = molecular target: T2, PP1c (Oryctolagus cuniculus, UniProt P62143); assay: MLC20 (myosin P-light chain) phosphatase activity of PP1c; format: biochemical
T2 construct: from tissue; host or cells: rabbit skeletal muscle (PP1G dissociated with LiBr)
T2 sequence (P62143 whole entry): as the sequence (P62207 whole entry) above
Method: (§7) A,B; Effects of M110-(M1-E309) (closed circles), M110-(M1-F38) (open circles) and M110-(D39-E309) (open triangles) on the MLC20 phosphatase […] and phosphorylase phosphatase (B) activities of PP1c were measured after incubating PP1c for 15 minutes at 30° C. with each fragment. The results are presented as a percentage of those obtained in experiments where the M110 fragments were omitted.
(§8) C,D; The effect of M110-(M1-A150) (open circles) and M110-(L24-Y496) (closed circles) on the MLC20 phosphatase (C) and phosphorylase phosphatase (D) activities of PP1c were measured as in A,B.
(A) The MLC20 phosphatase activity of PP1c was assayed after incubation for 15 minutes at 30° C. in the presence or absence of 1 μM GM-(G63-T93) and either 0.1 μM M110-(M1-F38) or 0.1 nM M110-(M1-E309).
(1-38, open circles) or M110[M1-K35] (1-35, closed circles) were incubated with PP1c for 15 min at 30° C. and reactions started with the ^32P-labelled MLC20 substrate. The results are expressed as a % of the activity determined in control incubations where the M110 peptides were omitted (100%). Similar results were obtained in three separate experiments.
as §1, §2, §3
^32P-labelled myosin P-light chains containing 1.0 mol phosphate per mol subunit was prepared by phosphorylation with smooth muscle myosin light chain kinase. The dephosphorylation of myosin P-light chain (1 μM) was carried out as in [4] and one unit of activity (U) was that amount which catalysed the release of 1 μmole of phosphate in one min. When assaying PP1M in immunoprecipitates from the myofibrillar extracts, the tubes were shaken continuously and 3 nM okadaic acid was included to inhibit any PP2A present.

PP1M [6] = molecular target: T1, PP1M; assay: Gel filtration of PP1M on Superose 12 with or without GM-(G63-T93); format: binding, chicken
Method: (B,C) PPIM was incubated for 15 minutes at 30° C. in the absence (B) and presence (C) of […] GM-(G63-T93), then passed through a 30×1 cm column of Superose 12 equilibrated at ambient temperature in 50 mM Tris/HCl pH 7.5, 0.2M NaCl, 0.1 mM EGTA, 0.1% (by vol) 2-mercaptoethanol, 0.03% (by mass) Brij 35 in the absence (B) or presence (C) of 1 μM GM-(G63-T93). Fractions (0.25 ml) were assayed for MLC20 phosphatase (MLCP) in B and for phosphorylase phosphatase (PhP) activity in C. The arrows denote the position of ferritin (450 kDa) and ovalbumin (43 kDa).

PP1c [7] = molecular target: T2, PP1c; assay: Phosphorylase phosphatase activity of PP1c; format: biochemical, rabbit
Method: as §7, §8
(B) The phosphorylase phosphatase activity of PP1c was assayed as in A in the presence or absence of 1 μM GM-(G63-T93) and 1.0 nM M110-(M1-E309). The results are presented (SEM for three experiments) as a percentage of the PP1c activity measured in the absence of GM-(63-T93), M110-(M1-F38) or M110-(M1-E309).
as §1, §2, §3

GKRTNLRKTGSERIAHGMRVKFNPLALLLDSC [32 residue peptide from p53BP2]
effect on the phosphorylase phosphatase activity of PP1GL (PP1GL [1]; hepatic glycogen particles containing PP1-GL): increase in the rate of dephosphorylation of glycogen phosphorylase
effect of the peptide in cultured cells (cultured cells): modulate the interaction between PP1 and p53BP2 in vivo and affect cell regulation and apoptosis
effect on the phosphorylase phosphatase activity of PP1M (PP1M [2]): increase in the rate of dephosphorylation of glycogen phosphorylase
effect on the MLC20 phosphatase activity of PP1M (PP1M [3]): decrease in the rate of dephosphorylation of the MLC20 subunit of smooth muscle myosin

GRRVSFADNFGFNLVSVKEFDTWELPSVSTT [GM-(G63-T93), synthetic peptide, residues 63-93 of rabbit GM]
effect on the glycogen synthase phosphatase activity of PP1GL (PP1GL [4]): no effect
displacement of GL from PP1c (PP1GL [1]): does not displace GL from PP1c
increase in the phosphorylase phosphatase activity of PP1GL (PP1GL [1]; hepatic glycogen particles, 15 min 30° C.): sixfold
EC50 (PP1GL [1]; hepatic glycogen particles, 15 min 30° C., read-out: concentration required for 50% activation of the phosphorylase phosphatase activity of PP1GL): 30 nM
increase in the phosphorylase phosphatase activity of PP1M (PP1M [2]; 10 μM peptide): about 7 fold
prevention of stimulation of the MLC20 phosphatase activity of PP1c by M110 fragments (PP1c [5]): prevented M110-(M1-F38) or M110-(M1-E309) from stimulating the MLC20 phosphatase activity of PP1c
dissociation of PP1M in gel-filtration experiments (PP1M [6]): displaced the M110 subunit from PP1M
prevention of suppression of the phosphorylase phosphatase activity of PP1c by a regulatory subunit or fragment (PP1c [7]): prevented bacterially expressed GST-GL from suppressing the phosphorylase phosphatase activity of PP1c; also recorded: prevented M110-(M1-E309) from suppressing the phosphorylase phosphatase activity of PP1c
maximal stimulation of the phosphorylase phosphatase activity of PP1c (PP1c [7]; SEM for three experiments): 37+1.4%
suppression of the MLC20 phosphatase activity of PP1M (PP1M [3]; 10 μM peptide): 60-65%
